The procedure of series [1]: A mixture of the labeled peptide and mouse serum was made and incubated at 37° C. The mouse serum was fresh nude mouse serum obtained from (GSCC on the same day). The Indium-labeled peptide solution (50 μL) and 450 μL of the mouse serum were combined and vortexed. This was incubated at 37° C. for 18.0 hrs. Injections were made into the reverse phase HPLC at t0=0 hrs and t1=18.0 hrs.
Aliquots were withdrawn at various time points and examined by reverse phase HPLC and by size exclusion HPLC.
The peptide was monitored as described above by HPLC.

The subject of series [2] is GW-39 human colonic xenograft tumors. Put plainly: Biodistribution of 111In IMP 237 in mice pretargeted with hMN-14×m679. The class given is in vivo. The note with it: pretargeting. From the text:
The animals were sacrificed at 3, 24, 48 hr post injection. The tumor to non-tumor ratios of the peptides in the pretargeting study are show in Table 2.

Series [3] can be described thus: Pretargeting biodistribution of 111In-IMP 241, 281, 284 after 125I-hMN-14×m679. The note with it: NCr nude, mouse, in vivo, total radioactivity. An excerpt:
NCr nudes: (NCI) from Taconic, 4 weeks of age
At the times shown above, 5 mice per time point will be necropsied. Tissues (tumor, liver, spleen, kidney, lungs, blood, stomach, large and small intestines) will be isolated, weighed and counted in the appropriate windows.

The record followed here is patent US7172751B2, “D-amino acid peptides” (Immunomedics, Inc., priority 2003, dated 2007).

Each structure is given as a SMILES string. *1 amine or outer side, *2 acyl side, *3 side chain or, on linkers, in order; H or OH if unused. Where a SMILES comes first, the peptide text is derived from it. Side-chain parts run from the residue outwards. [ ]: non-standard residue; d: D form. The star is where a group is joined. DOTA = O=C(O)CN1CCN(CC(=O)O)CCN(CC(=O)*)CCN(CC(=O)O)CC1; NH(2-(imidazol-4-yl)ethyl) = c1ncc(CCN*)[nH]1; Suc = O=C(CCC(=O)[*:2])[*:1]

For `NC(=O)[C@H](CCCCNC(=O)CNC(=O)CCC(=O)NCCc1cnc[nH]1)NC(=O)[C@H](Cc1ccc(O)cc1)NC(=O)[C@H](CCCCNC(=O)CNC(=O)CCC(=O)NCCc1cnc[nH]1)NC(=O)[C@H](Cc1ccccc1)NC(=O)CN1CCN(CC(=O)O)CCN(CC(=O)O)CCN(CC(=O)O)CC1` [IMP 237, DOTA-Phe-Lys(HSG)-Tyr-Lys(HSG)-NH2] ({DOTA}-FK([Gly-Suc-NH(2-(imidazol-4-yl)ethyl)])YK([Gly-Suc-NH(2-(imidazol-4-yl)ethyl)])-NH2), the “converted to the shorter retention time peak” value in series [1] is recorded as “about 70%”. The “% Injected/g Tissue” value stood at 2.42 ± 0.61 % Injected/g Tissue in series [2] (Blood, 3 hr After 111In); 0.73 ± 0.17 % Injected/g Tissue in series [2] (Blood, 24 hr After 111In); 0.17 ± 0.06 % Injected/g Tissue in series [2] (Blood, 48 hr After 111In); 7.25 ± 2.79 % Injected/g Tissue in series [2] (GW-39, 3 hr After 111In); 8.38 ± 1.70 % Injected/g Tissue in series [2] (GW-39, 24 hr After 111In); 5.39 ± 1.46 % Injected/g Tissue in series [2] (GW-39, 48 hr After 111In). Moreover, the “% Injected/g Tissue” value in series [2] (Kidney, 3 hr After 111In) worked out at 3.59 ± 0.75 % Injected/g Tissue; in series [2] (Kidney, 24 hr After 111In), 2.24 ± 0.40 % Injected/g Tissue; in series [2] (Kidney, 48 hr After 111In) it was 1.27 ± 0.33 % Injected/g Tissue; in series [2] (Lg. Int., 24 hr After 111In) it was 0.17 ± 0.03 % Injected/g Tissue; in series [2] (Lg. Int., 48 hr After 111In) it was 0.13 ± 0.03 % Injected/g Tissue; in series [2] (Liver, 3 hr After 111In), 0.58 ± 0.13 % Injected/g Tissue. Also, the “% Injected/g Tissue” value in series [2] (Liver, 24 hr After 111In) is 0.62 ± 0.09 % Injected/g Tissue; in series [2] (Liver, 48 hr After 111In) it was 0.61 ± 0.16 % Injected/g Tissue; in series [2] (Lungs, 3 hr After 111In) it was 1.19 ± 0.26 % Injected/g Tissue; in series [2] (Lungs, 24 hr After 111In) it was 0.44 ± 0.10 % Injected/g Tissue; in series [2] (Lungs, 48 hr After 111In) it was 0.22 ± 0.06 % Injected/g Tissue; in series [2] (Sm. Int., 3 hr After 111In), 0.65 ± 0.74 % Injected/g Tissue. The “% Injected/g Tissue” value is 0.18 ± 0.03 % Injected/g Tissue in series [2] (Sm. Int., 24 hr After 111In); 0.11 ± 0.02 % Injected/g Tissue in series [2] (Sm. Int., 48 hr After 111In); 0.50 ± 0.14 % Injected/g Tissue in series [2] (Spleen, 3 hr After 111In); 0.71 ± 0.16 % Injected/g Tissue in series [2] (Spleen, 24 hr After 111In); 0.57 ± 0.15 % Injected/g Tissue in series [2] (Spleen, 48 hr After 111In); 0.18 ± 0.03 % Injected/g Tissue in series [2] (Stomach, 3 hr After 111In).

In the case of `NC(=O)[C@H](CCCCNC(=O)CNC(=O)CCC(=O)NCCc1cnc[nH]1)NC(=O)[C@@H](Cc1ccc(O)cc1)NC(=O)[C@H](CCCCNC(=O)CNC(=O)CCC(=O)NCCc1cnc[nH]1)NC(=O)[C@H](Cc1ccccc1)NC(=O)CN1CCN(CC(=O)O)CCN(CC(=O)O)CCN(CC(=O)O)CC1` [IMP 241, DOTA-Phe-Lys(HSG)-D-Tyr-Lys(HSG)-NH2, reference compound] ({DOTA}-FK([Gly-Suc-NH(2-(imidazol-4-yl)ethyl)])[dY]K([Gly-Suc-NH(2-(imidazol-4-yl)ethyl)])-NH2), the “decomposed in mouse serum” value in series [1] is given as approximately 5%. For the same molecule, the tissue uptake (as a rule, the percentage of the injected dose found per gram of tissue) at 24 h in series [3] was found to be 0.28 %ID/g.
